From patent US9073879B2, “Oxazole derivatives useful as modulators of FAAH” (MERCK SHARP & DOHME CORP., priority 2010, dated 2015) come the findings set out here.

Test [1] deals with T1, human FAAH (Homo sapiens, UniProt O00519).
T1 construct: The full length FAAH was subcloned into the mammalian expression vector, pcDEF.neo, using XbaI and EcoRI restriction sites; expressed in transfected cells
T1 sequence (O00519 1-579): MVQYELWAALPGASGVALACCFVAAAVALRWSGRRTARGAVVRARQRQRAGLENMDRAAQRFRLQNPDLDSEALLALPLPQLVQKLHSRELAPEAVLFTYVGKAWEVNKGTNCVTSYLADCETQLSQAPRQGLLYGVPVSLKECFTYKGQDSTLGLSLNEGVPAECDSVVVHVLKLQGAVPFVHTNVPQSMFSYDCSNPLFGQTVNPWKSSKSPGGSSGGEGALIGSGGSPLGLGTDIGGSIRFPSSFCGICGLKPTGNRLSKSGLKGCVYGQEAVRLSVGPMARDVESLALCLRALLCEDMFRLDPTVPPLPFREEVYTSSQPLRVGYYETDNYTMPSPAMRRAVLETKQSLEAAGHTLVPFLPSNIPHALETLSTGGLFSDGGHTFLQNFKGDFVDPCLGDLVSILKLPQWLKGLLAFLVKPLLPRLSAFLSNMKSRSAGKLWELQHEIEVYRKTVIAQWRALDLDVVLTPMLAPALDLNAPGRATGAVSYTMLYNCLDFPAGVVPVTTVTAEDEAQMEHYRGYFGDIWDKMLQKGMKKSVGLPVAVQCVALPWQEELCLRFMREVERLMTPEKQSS
Nature of the test: FAAH whole cell assay (human Whole cell, FAAH_CHO, AAMCA substrate). The test is classed as cell-based. The settings on record: CHO cells expressing human FAAH, whole cell format; read-out: human cell_IC50. From the text: (§1) To assist in assay development stable cell lines for human, murine and rat full length FAAH were developed. Human FAAH cDNA (Accession No: NM_001441.1) was purchased from Origene (Rockville, Md.). The full length FAAH was subcloned into the mammalian expression vector, pcDEF.neo, using XbaI and EcoRI restriction sites and used for stable cell line generation.
Murine (accession number NM_010173) and Rat FAAH (accession number NM_024132) was amplified by reverse transcriptase polymerase chain reaction (RT-PCR) from brain cDNA (BD Biosciences, San Jose, Calif.) using primers 1 and 2 or primers 1 and 3 respectively (see Table). The resulting PCR product was ligated into pCR4 TOPO and DNA sequence confirmed. The full length murine FAAH was subcloned into the mammalian expression vector, pcDEFneo using either EcoRI (murine) or KpnI and EcoRI (rat) restriction sites. Chinese hamster ovary cells (CHO) were transfected following manufacturers protocol (AMAXA). Forty eight hours post transfection, cells were trypsinized and transferred to 96 well plates in Iscove's DMEM media supplemented with 2 mM Glutamine, 10% fetal calf serum, 1 mg/ml geneticin and HT Supplement (0.1 mM sodium hypoxanthine, 0.016 mM thymidine) in order to isolate single clones. Following selection in geneticin, individual clones were selected and FAAH activity was assessed using a whole cell fluorescent anandamide assay, modified from Ramarao et al (2005). Following removal of tissue culture media cells were dislodged following addition of Cellstripper (Mediatech, Inc. Manassas, Va.) and transferred to 96 well black clear bottom assay plate, centrifuged at 1,000 rpm for 3 mins and media removed and replaced with assay buffer (50 mM Tris pH8.0, 1 mM EDTA, 0.1% fatty acid free BSA). The reaction was initiated by addition of fluorescent substrate, AMC Arachidonoyl Amide (Cayman Chemical, Ann Arbor, Mich.) to 1 μM and reaction allowed to proceed for 2 hours at room temperature. Release of fluorescence was monitored in a CytoFluor Multiplate Reader. Cells expressing the highest amount of FAAH activity were selected for study with FAAH inhibitors.
(§2) Assays are performed on either cell lysate or microsome fractions prepared as described or in whole cell format employing either the fluorescent substrate AAMCA (Cayman chemical, Ann Arbor, Mich.) or ^3H-anandamide ([ETHANOLAMINE-1-3H] American Radiolabeled Chemicals; 1 mCi/ml). The cell lysate or microsome assay is performed in black PerkinElmer OptiPlates-384F by adding FAAH_CHO (whole cell (shown as human Whole cell or Human WC), cell lysate (shown as human lysate of human LY) or microsome) in assay buffer (50 mM Phosphate, pH 8.0, 1 mM EDTA, 200 mM KCl, 0.2% glycerol, 0.1% fatty acid free BSA) to each well, followed by either DMSO or compound and allowed to incubate at 22-25° C. for fifteen minutes. AAMCA substrate was used to achieve a final concentration of 1 μM and reaction allowed to proceed at room temperature for 1-3 hours. Fluorescent release as a measure of FAAH activity was monitored by reading the plate in an Envision plate Reader (Ex: 360/40 nM; Em: 460/40 nM). Whole cell assay is conducted with cells harvested after rinsing tissue culture flasks three times with Ca^++Mg^++ free PBS, incubating for 10 min in Enzyme free dissociation media and centrifuging for 5 minutes at 1,000 rpm in table top centrifuge. Cells are resuspended in assay buffer at desired cell number in (4×10^4 cells/assay in 96-well format; 1×10^4 cells/assay in 384-well format) and assayed as described.

For test [2], the target named is T1, human FAAH. Nature of the test: FAAH cell lysate assay (human lysate, FAAH_CHO, AAMCA substrate). Format: biochemical. The settings on record: lysate of CHO cells expressing human FAAH; read-out: human lysate_IC50.
Text: as §1
CHO cells expressing FAAH were used to prepare either crude cell lysate or microsome fractions. To harvest cells, tissue culture media was decanted, the monolayer washed three times with Ca^++Mg^++ free PBS and cells recovered after 15 mm in enzyme free dissociation media (Millipore Corp, Billerica, Mass.). Cells were collected by centrifuging at 2000 rpm for 15 min. and the cell pellet re-suspended with 50 mM HEPES (pH 7.4) containing 1 mM EDTA and the protease inhibitors aprotinin (1 mg/ml) and leupeptin (100 μM). The suspension was sonicated at 4° C. and the cell lysate recovered after centrifuging at 12,000×g (14,600 rpm, SS34 rotor) for 20 min at 4° C. to form a crude pellet of cell debris, nuclei, peroxisomes, lysosomes, and mitochondria; the supernatant or cell lysate was used for FAAH enzyme assay. In some cases, microsomes fractions enriched in FAAH were prepared by centrifuging the cell lysate further at 27,000 rpm (100,000×g) in SW28 rotor for 50 minutes at 4° C. The pellet containing FAAH-enriched microsomes was re-suspend in 50 mM HEPES, (pH 7.4) 1 mM EDTA, and any remaining DNA sheared by passage of material through a 23 gauge needle and aliquots of enzyme were store at −80° C. prior to use.
(American Radiolabeled Chemicals; 1 mCi/ml) with FAAH (Life Sciences (1995), 56, 1999-2005 and Journal of Pharmacology and Experimented Therapeutics (1997), 283, 729-734), Analytical. Biochemistry (2003), 318:270-5. In addition, routine assays were performed monitoring hydrolysis of araehidonyl-7-amino-4-methylcoumarin amide (AAMCA) by following increase in fluorescence upon release of 7-amino 4-methyl coumarin (λEX=355 nm, (λEM=460 nm). Analytical. Biochemistry (2005). 343:143-51
as §2

As for `Fc1ccc(-c2nc(COC3CCOCC3)c(Sc3ccc(Cl)cn3)o2)cc1` [Example B2.15, 5-chloro-2-({2-(4-fluorophenyl)-4-[(tetrahydro-2H-pyran-4-yloxy)methyl]-1,3-oxazol-5-yl}sulfanyl)pyridine], the IC50 at human FAAH [1] was 343 nM; on human FAAH [2], 88 nM.
Consider `Fc1ccc(-c2nc(COc3ccc4c(c3)OCO4)c(Sc3ccc(Cl)cn3)o2)cc1` [Example B2.4, 2-({4-[(1,3-benzodioxol-5-yloxy)methyl]-2-(4-fluorophenyl)-1,3-oxazol-5-yl}sulfanyl)-5-chloropyridine], for which the results for the IC50 on human FAAH [1] and on human FAAH [2] were 224 nM and 24 nM, respectively.
Consider `CS(=O)(=O)c1ccc(NC(=O)c2nc(-c3ccc(F)cc3)oc2Sc2ccc(Cl)cn2)cc1` [Example A5.1, 5-[(5-chloropyridin-2-yl)sulfanyl]-2-(4-fluorophenyl)-N-[4-(methylsulfonyl)phenyl]-1,3-oxazole-4-carboxamide], for which the IC50 turned out to be 388 nM on human FAAH [1] and 61 nM at human FAAH [2].
For `O=C(NCC(F)(F)F)c1ccc(OCc2nc(-c3ccc(F)cc3)oc2Sc2ccc(Cl)cn2)cc1` [Example B2.11.5, 4-({5-[(5-chloropyridin-2-yl)sulfanyl]-2-(4-fluorophenyl)-1,3-oxazol-4-yl}methoxy)-N-(2,2,2-trifluoroethyl)benzamide] the same measures were 22 nM and 5 nM.
Turning to `CCNC(=O)c1ccc(NCc2nc(-c3ccc(F)cc3)oc2Sc2ccc(Cl)cn2)cc1` [Example B5.4, 4-[({5-[(5-chloropyridin-2-yl)sulfanyl]-2-(4-fluorophenyl)-1,3-oxazol-4-yl}methyl)amino]-N-ethylbenzamide], the figures for the IC50 at human FAAH [1] and on human FAAH [2] were 8 nM and 3 nM, respectively.
For `O=C(O)c1ccc(OCc2nc(-c3ccc(F)cc3)oc2Sc2ccc(Cl)cn2)cc1` [Example B2.11.1, 4-({5-[(5-chloropyridin-2-yl)sulfanyl]-2-(4-fluorophenyl)-1,3-oxazol-4-yl}methoxy)benzoic acid], in that order: 253 nM and 59 nM.
For `CS(=O)(=O)c1ccc(OCc2nc(-c3ccc(F)cc3)oc2Sc2ccc(Cl)cn2)cc1` [Example B2.3, 5-chloro-2-{[2-(4-fluorophenyl)-4-{[4-(methylsulfonyl)phenoxy]methyl}-1,3-oxazol-5-yl]sulfanyl}pyridine], the IC50 on human FAAH [1] worked out at 535 nM; at human FAAH [2], 54 nM.
Turning to `COC(=O)[C@H]1CC[C@H](NCc2nc(-c3ccc(F)cc3)oc2Sc2ccc(Cl)cn2)CC1` [Example B5.10, methyl trans-4-{({5-[(5-chloropyridin-2-yl)sulfanyl]-2-(4-fluorophenyl)-1,3-oxazol-4-yl}methyl)amino] cyclohexanecarboxylate], the values for the IC50 on human FAAH [1] and on human FAAH [2] were 31 nM and 12 nM, respectively.
For `Fc1ccc(-c2nc(COC3CCNCC3)c(Sc3ccc(Cl)cn3)o2)cc1` [Example B2.14, 5-chloro-2-({2-(4-fluorophenyl)-4-[(piperidin-4-yloxy)methyl]-1,3-oxazol-5-yl}sulfanyl)pyridine] the same measures were 3360 nM and 902 nM.
For `O[C@H]1CC[C@H](NCc2nc(-c3ccc(F)cc3)oc2Sc2ccc(Cl)cn2)CC1` [Example B5.9, trans-4-[({5-[(5-chloropyridin-2-yl)sulfanyl]-2-(4-fluorophenyl)-1,3-oxazol-4-yl}methyl)amino] cyclohexanol], in that order: 139 nM and 45 nM.
For `COC(=O)c1ccc(NCc2nc(-c3ccc(F)cc3)oc2Sc2ccc(Cl)cn2)cc1` [Example B5.1, methyl 4-[({5-[(5-chloropyridin-2-yl)sulfanyl]-2-(4-fluorophenyl)-1,3-oxazol-4-yl}methyl)amino]benzoate], in that order: 18 nM and 3 nM.
As to `Clc1ccc(Sc2oc(C3CC3)nc2COc2ccc3[nH]ncc3c2)nc1` [Example D4.2, 5-({5-[(5-chloropyridin-2-yl)sulfanyl]-2-cyclopropyl-1,3-oxazol-4-yl}methoxy)-1H-indazole], the IC50 was determined as 979 nM at human FAAH [1] and 317 nM at human FAAH [2].
Take `CCOC(=O)c1ccc(NCc2nc(-c3ccc(F)cc3)oc2Sc2ccc(Cl)cn2)nc1` [Example B5.7, ethyl 6-[({5-[(5-chloropyridin-2-yl)sulfanyl]-2-(4-fluorophenyl)-1,3-oxazol-4-yl}methyl)amino]pyridine-3-carboxylate]: the IC50 amounted to 24 nM on human FAAH [1] and 6 nM at human FAAH [2].
Turning to `CCNC(=O)c1ccc(OCc2nc(-c3ccc(F)cc3)oc2Sc2ccc(Cl)cn2)nc1` [Example B2.16, 6-({5-[(5-chloropyridin-2-yl)sulfanyl]-2-(4-fluorophenyl)-1,3-oxazol-4-yl}methoxy)-N-ethylpyridine-3-carboxamide], the IC50 amounted to 10 nM on human FAAH [1] and 4 nM on human FAAH [2].
For `COC(=O)c1ccc(NC(=O)c2nc(-c3ccc(F)cc3)oc2Sc2ccc(Cl)cn2)cc1` [Example A5.3, methyl 4-[({5-[(5-chloropyridin-2-yl)sulfanyl]-2-(4-fluorophenyl)-1,3-oxazol-4-yl}carbonyl)amino]benzoate], in that order: 39 nM and 10 nM.
For `CS(=O)(=O)N1CCC(NC(=O)c2nc(-c3ccc(F)cc3)oc2Sc2ccc(Cl)cn2)CC1` [Example A5.2, 5-[(5-chloropyridin-2-yl)sulfanyl]-2-(4-fluorophenyl)-N-[1-(methylsulfonyl)piperidin-4-yl]-1,3-oxazole-4-carboxamide] the same measures were 400 nM and 57 nM.
